Laboratory results published in the supplement of paper PMC5908809.

How the values were obtained:
DERL-7 (IL-2 2.5 ng/mL) [1] = assay: drug sensitivity score (DSS) (DSS units); higher = more sensitive; extreme values may be limits of the assay; conditions: 72 h
KHYG-1 (IL-2 2.5 ng/mL) [2] = assay: as above; conditions: 72 h
YT (IL-2 2.5 ng/mL) [3] = assay: as above; conditions: 72 h
NKL (IL-2 2.5 ng/mL) [4] = assay: as above; conditions: 72 h
SNK-6 (IL-2 2.5 ng/mL) [5] = assay: as above; conditions: 72 h
NK-YS (IL-2 2.5 ng/mL) [6] = assay: as above; conditions: 72 h
[7] = test system: normal primary NK cells, pool 3 (3 donors) (IL-2 2.5 ng/mL); assay: as above; conditions: 72 h
[8] = test system: normal primary NK cells, pool 1 (3 donors) (IL-2 2.5 ng/mL); assay: as above; conditions: 72 h
[9] = test system: normal primary NK cells, pool 1 (3 donors), resting (IL-2 0 ng/mL); assay: as above; conditions: 72 h
IMC-1 (IL-2 20 ng/mL) [10] = assay: as above; conditions: 72 h
NK-92 (IL-2 2.5 ng/mL) [11] = assay: as above; conditions: 72 h
[12] = test system: normal primary NK cells, pool 2 (3 donors) (IL-2 2.5 ng/mL); assay: as above; conditions: 72 h
KAI3 (IL-2 2.5 ng/mL) [13] = assay: as above; conditions: 72 h
[14] = test system: normal NK cells expanded with K562-aAPC; assay: percent inhibition of viability; higher = more inhibition; conditions: 72 h, IL-2 2.5 ng/mL
Method: (§1)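 Drug sensitivity and resistance testing on K562-aAPC-expanded normal NK cells: 5 concentrations (10-fold steps over a 10,000-fold range), 72 h at 37 °C, viability by CellTiter-Glo normalised to DMSO and benzethonium chloride controls; DSS from the fitted curve.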

DERL-7 (IL-2 2.5 ng/mL) [15] = assay: as above; conditions: 72 h
KHYG-1 (IL-2 2.5 ng/mL) [16] = assay: as above; conditions: 72 h
YT (IL-2 2.5 ng/mL) [17] = assay: as above; conditions: 72 h
NKL (IL-2 2.5 ng/mL) [18] = assay: as above; conditions: 72 h
SNK-6 (IL-2 2.5 ng/mL) [19] = assay: as above; conditions: 72 h
NK-YS (IL-2 2.5 ng/mL) [20] = assay: as above; conditions: 72 h
[21] = test system: normal primary NK cells, pool 3 (3 donors) (IL-2 2.5 ng/mL); assay: as above; conditions: 72 h
[22] = test system: normal primary NK cells, pool 1 (3 donors) (IL-2 2.5 ng/mL); assay: as above; conditions: 72 h
[23] = test system: normal primary NK cells, pool 1 (3 donors), resting (IL-2 0 ng/mL); assay: as above; conditions: 72 h
IMC-1 (IL-2 20 ng/mL) [24] = assay: as above; conditions: 72 h
NK-92 (IL-2 2.5 ng/mL) [25] = assay: as above; conditions: 72 h
[26] = test system: normal primary NK cells, pool 2 (3 donors) (IL-2 2.5 ng/mL); assay: as above; conditions: 72 h
KAI3 (IL-2 2.5 ng/mL) [27] = assay: as above; conditions: 72 h
[28] = test system: normal NK cells expanded with K562-aAPC; assay: drug sensitivity score (DSS) (DSS units); higher = more sensitive; extreme values may be limits of the assay; conditions: 72 h; IL-2 2.5 ng/mL
Method: as §1

COC(=O)N[C@@H](C)CNc1nccc(-c2cn(C(C)C)nc2-c2cc(Cl)cc(NS(C)(=O)=O)c2F)n1 [Encorafenib] (max concentration tested 1000 nM)
Conditions	drug sensitivity score
DERL-7 (IL-2 2.5 ng/mL) [1]	0
IMC-1 (IL-2 20 ng/mL) [10]	0.04
KAI3 (IL-2 2.5 ng/mL) [13]	1.37
KHYG-1 (IL-2 2.5 ng/mL) [2]	16.3
NK-92 (IL-2 2.5 ng/mL) [11]	0.17
NK-YS (IL-2 2.5 ng/mL) [6]	0.52
NKL (IL-2 2.5 ng/mL) [4]	0
SNK-6 (IL-2 2.5 ng/mL) [5]	0
YT (IL-2 2.5 ng/mL) [3]	0.55
[7]	0
[8]	0
[9]	0
[12]	0
[28]	0

percent inhibition of viability [%]
Conditions	0.1 nM	1 nM	10 nM	100 nM	1000 nM
DERL-7 (IL-2 2.5 ng/mL) [15]	-4.45	1.39	-5.31	-20.4	2.89
IMC-1 (IL-2 20 ng/mL) [24]	-3.38	-1.85	-0.96	1.07	11.3
KAI3 (IL-2 2.5 ng/mL) [27]	-3.35	-4.73	-1.44	-5.19	35.6
KHYG-1 (IL-2 2.5 ng/mL) [16]	1.4	3.41	40.8	96.3	36
NK-92 (IL-2 2.5 ng/mL) [25]	3.73	-5.79	17.9	6.05	10.7
NK-YS (IL-2 2.5 ng/mL) [20]	0.75	0.97	2.64	4.64	15.7
NKL (IL-2 2.5 ng/mL) [18]	-6.88	-1.53	-12.4	-13	2.6
SNK-6 (IL-2 2.5 ng/mL) [19]	-4.51	-10	13.8	2.67	3.42
YT (IL-2 2.5 ng/mL) [17]	4.02	1.12	4.21	0.09	19.3
[14]	-0.52	-2.88	-3.45	0.31	8.45
[21]	-8.13	-6.38	-2.7	-12.9	-4.56
[22]	-4.01	-8.97	-7.94	-18.4	-8.33
[23]	6.42	-18.3	-10.7	-27.7	1.26
[26]	-12.3	-6.1	-1.97	-5.14	-1.61
